One experiment has as its target T1, YqcA (Escherichia coli, UniProt P65367).
T1 construct: monomer; short-chain flavodoxin
Description: solution NMR structure of holo-form; […] HSQC titration. In kind it is binding. The conditions noted are these: oxidized FMN, non-covalent; slow exchange; pH 7.0, 30 mM sodium phosphate, 30 mM NaCl, 25 °C.

A further experiment concerns the target T2, FldA (Escherichia coli, UniProt P61949).
T2 construct: monomer; long-chain flavodoxin
T2 sequence (P61949 1-176): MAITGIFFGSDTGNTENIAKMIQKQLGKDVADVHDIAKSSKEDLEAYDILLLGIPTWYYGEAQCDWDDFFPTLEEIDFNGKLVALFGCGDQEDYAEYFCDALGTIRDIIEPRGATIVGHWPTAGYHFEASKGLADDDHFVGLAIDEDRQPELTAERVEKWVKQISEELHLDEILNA
Described as above. The conditions noted are these: oxidized FMN, non-covalent; pH 7.0, 30 mM sodium phosphate, 30 mM NaCl, 25 °C. The format is binding.

T1 sequence (P65367 whole entry): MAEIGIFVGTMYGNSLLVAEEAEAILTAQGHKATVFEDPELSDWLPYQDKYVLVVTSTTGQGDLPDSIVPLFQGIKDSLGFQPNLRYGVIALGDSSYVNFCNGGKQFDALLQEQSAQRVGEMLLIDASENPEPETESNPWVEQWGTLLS

Turning to `Cc1cc2nc3c(=O)[nH]c(=O)nc-3n(C[C@H](O)[C@H](O)[C@H](O)COP(=O)(O)O)c2cc1C` [FMN], the “solution NMR structure of holo-form; 15N HSQC titration” value was “These results demonstrate that YqcA binds FMN with high affinity” at YqcA and “FMN titration experiments were performed with FldA” at FldA.
